From article PMC9033141, “Beta and Gamma Amino Acid-Substituted Benzenesulfonamides as Inhibitors of Human Carbonic Anhydrases” (Pharmaceuticals, 2022)
Like-named read-outs stand apart in the source and are kept apart here.

Columns and labels:
[1] = molecular target: CAXIII (Homo sapiens, UniProt Q8N1Q1); test: biochemical; conditions: Observed Dissociation Constant (Kd_obs), FTSA, pH 7.0, 37 °C;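 further: recombinant human CAXIII melting temperature tracked by ANS fluorescence in thermal shift assay, Tm fitted against ligand concentration, intrinsic value corrects Kd for deprotonated sulfonamide and Zn-bound water fractions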
Chain of CAXIII (Q8N1Q1 whole entry): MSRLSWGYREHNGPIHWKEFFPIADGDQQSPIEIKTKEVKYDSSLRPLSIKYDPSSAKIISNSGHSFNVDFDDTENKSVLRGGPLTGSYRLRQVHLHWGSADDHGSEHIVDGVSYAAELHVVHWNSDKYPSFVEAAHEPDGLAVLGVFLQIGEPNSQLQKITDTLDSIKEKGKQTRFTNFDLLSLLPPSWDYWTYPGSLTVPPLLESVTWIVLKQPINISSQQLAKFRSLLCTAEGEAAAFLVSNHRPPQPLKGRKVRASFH
Protocol: (§1) Human CA isozymes were expressed in E. coli (CAI, II, III, IV, VA, VB, VII, XII, XIII, XIV) or mammalian cells (CAVI and CAIX), chromatographically purified following the published protocols [47], and stored at −80 °C. The protein concentration was determined by UV absorption at 280 nm using Beer–Lambert law.
(§2) The QIAGEN Rotor-Gene Q was used to carry out the experiments, with a blue channel used for excitation (365 nm) and detection (460 nm). FTSA in this case relies on an extrinsic probe, 8-anilino-1-naphthalenesulfonate (ANS), to detect the fluorescence increase during protein denaturation, from which protein melting temperature (Tm) can be determined. […] The observed affinity of ligands for CAs was determined by plotting the Tm as a function of ligand concentration and then fitting a curve as described previously [48]. […] Samples were heated from 25 °C to 99 °C at the speed of 1 °C/min.
(§3) The intrinsic thermodynamic parameters were calculated as described in [40]. The intrinsic reaction of inhibitor binding to CA is shown in Equation (1).
(§4) When calculating Kd_int values, these protein and ligand fractions from Equation (1) have to be accounted for (Equations (2) and (3)). The intrinsic dissociation constant is calculated by multiplying Kd_obs value by the corresponding fractions of protein and ligand (Equation (4)). (2) fRSO2NH^−=10^pH−pKa_RSO2NH2/1+10^pH−pKa_RSO2NH2 (3) fCAZnH2O=1−10^pH−pKa_CAZnH2O/1+10^pH−pKa_CAZnH2O (4) Kd_int=Kd_obs×fRSO2NH^−×fCAZnH2O (5) ΔGint0=RTlnKd_int
(§5) The intrinsic standard Gibbs energy changes upon binding were calculated using Equation (5). Here, R—universal ideal gas constant (8.3144 J/mol·K), T—absolute temperature (310.15 K).

[2] = molecular target: T1, CAVA (Homo sapiens, UniProt P35218); test: Fluorescent thermal shift assay (FTSA), CAVA; type: binding; conditions: FTSA, pH 7.0, 37 °C; read-out: Observed Dissociation Constant (Kd_obs), CAVA
T1 construct: made in house; host or cells: E. coli
T1 sequence (P35218 39-305): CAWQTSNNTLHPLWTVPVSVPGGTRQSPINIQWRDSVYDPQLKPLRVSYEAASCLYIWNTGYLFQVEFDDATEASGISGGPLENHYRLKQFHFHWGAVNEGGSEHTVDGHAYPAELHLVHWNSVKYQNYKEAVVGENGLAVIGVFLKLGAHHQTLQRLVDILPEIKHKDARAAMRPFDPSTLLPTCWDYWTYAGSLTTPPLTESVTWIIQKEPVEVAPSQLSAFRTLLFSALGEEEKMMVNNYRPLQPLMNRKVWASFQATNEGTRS
Protocol: as §1, §2
(§6) The intrinsic thermodynamic parameters were calculated as described in [40]. The intrinsic reaction of inhibitor binding to CA is shown in Equation (1). […] It is known that CA proteins bind sulfonamides only when water molecules are coordinated to the Zn(II) ion, and sulfonamides only bind to CA proteins when their amino group is deprotonated (confirmed by neutron crystallography [53, 54, 55]):(1) CA Zn^II−H2O+RSO2NH^−⇄ CA Zn^II−NH SO2R+H2O
as §4, §5

[3] = molecular target: T2, CAXIV (Homo sapiens, UniProt Q9ULX7); test: Fluorescent thermal shift assay (FTSA), CAXIV; type: binding; conditions: FTSA, pH 7.0, 37 °C; read-out: Observed Dissociation Constant (Kd_obs), CAXIV;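 further: recombinant human CA XIV from E. coli, ANS-based thermal shift: Kd_obs fitted from melting temperature versus ligand concentration, ΔGint from Kd_obs corrected for deprotonated sulfonamide and Zn-water fractions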
T2 construct: made in house; host or cells: E. coli
T2 sequence (Q9ULX7 16-337): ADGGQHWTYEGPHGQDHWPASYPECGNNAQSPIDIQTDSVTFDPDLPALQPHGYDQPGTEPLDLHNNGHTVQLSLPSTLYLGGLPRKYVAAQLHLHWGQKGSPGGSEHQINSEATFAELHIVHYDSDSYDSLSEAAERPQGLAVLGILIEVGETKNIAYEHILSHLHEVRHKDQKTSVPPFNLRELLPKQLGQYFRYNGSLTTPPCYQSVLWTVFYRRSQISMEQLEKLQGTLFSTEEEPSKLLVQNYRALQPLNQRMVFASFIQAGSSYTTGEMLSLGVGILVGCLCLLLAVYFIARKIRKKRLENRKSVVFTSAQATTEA
Protocol: as §1, §2, §6, §4, §5

[4] = molecular target: T3, CAXII (Homo sapiens, UniProt O43570); test: biochemical; type: binding; conditions: FTSA, pH 7.0, 37 °C; read-out: Observed Dissociation Constant (Kd_obs), CAXII
T3 construct: made in house; host or cells: E. coli
T3 sequence (O43570 25-354): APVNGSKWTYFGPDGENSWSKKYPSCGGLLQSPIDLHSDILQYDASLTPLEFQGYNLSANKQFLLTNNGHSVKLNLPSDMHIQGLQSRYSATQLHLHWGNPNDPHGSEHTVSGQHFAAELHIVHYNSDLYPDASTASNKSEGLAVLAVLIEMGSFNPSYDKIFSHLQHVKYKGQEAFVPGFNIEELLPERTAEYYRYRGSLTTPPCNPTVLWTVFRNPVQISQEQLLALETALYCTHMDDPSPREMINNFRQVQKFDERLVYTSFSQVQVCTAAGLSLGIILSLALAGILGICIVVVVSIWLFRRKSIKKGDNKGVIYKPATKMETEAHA
Protocol: as §1, §2, §3, §4, §5

[5] = molecular target: T4, CAIV (Homo sapiens, UniProt P22748); test: Fluorescent thermal shift assay (FTSA), CAIV; type: binding; conditions: FTSA, pH 7.0, 37 °C; read-out: Observed Dissociation Constant (Kd_obs), CAIV;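 further: recombinant human enzyme, thermal denaturation followed by ANS fluorescence, melting temperature versus ligand concentration fitted for Kd_obs, intrinsic value corrected for deprotonated sulfonamide and Zn-bound water fractions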
T4 construct: made in house; host or cells: E. coli
T4 sequence (P22748 19-312): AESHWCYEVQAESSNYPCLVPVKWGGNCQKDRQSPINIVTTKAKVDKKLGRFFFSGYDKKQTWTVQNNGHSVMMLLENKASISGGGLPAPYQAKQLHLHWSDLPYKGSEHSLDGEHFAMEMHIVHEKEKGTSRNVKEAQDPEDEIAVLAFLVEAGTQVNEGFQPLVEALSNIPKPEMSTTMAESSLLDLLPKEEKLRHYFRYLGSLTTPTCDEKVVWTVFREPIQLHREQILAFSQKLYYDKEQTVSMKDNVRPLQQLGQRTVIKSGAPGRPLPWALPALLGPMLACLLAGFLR
Protocol: as §1, §2, §6, §4, §5

[6] = molecular target: T5, CAI (Homo sapiens, UniProt P00915); test: biochemical; type: binding; conditions: FTSA, pH 7.0, 37 °C; read-out: Observed Dissociation Constant (Kd_obs), CAI
T5 construct: made in house; host or cells: E. coli
T5 sequence (P00915 whole entry): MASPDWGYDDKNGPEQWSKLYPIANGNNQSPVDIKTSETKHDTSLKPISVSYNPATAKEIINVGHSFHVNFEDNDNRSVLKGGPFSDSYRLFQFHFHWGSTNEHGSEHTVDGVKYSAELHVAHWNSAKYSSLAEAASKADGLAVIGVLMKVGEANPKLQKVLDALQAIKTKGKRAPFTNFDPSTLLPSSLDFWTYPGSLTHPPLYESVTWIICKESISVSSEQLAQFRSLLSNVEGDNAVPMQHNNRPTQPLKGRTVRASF
Protocol: as §1, §2, §3, §4, §5

[7] = molecular target: T6, CAII (Homo sapiens, UniProt P00918); test: biochemical; type: binding; conditions: FTSA, pH 7.0, 37 °C; read-out: Observed Dissociation Constant (Kd_obs), CAII
T6 construct: made in house; host or cells: E. coli
Protocol: as §1, §2, §3, §4, §5

[8] = molecular target: T7, CAVII (Homo sapiens, UniProt P43166); test: Fluorescent thermal shift assay (FTSA), CAVII; type: binding; conditions: FTSA, pH 7.0, 37 °C
T7 construct: made in house; host or cells: E. coli
T7 sequence (P43166 whole entry): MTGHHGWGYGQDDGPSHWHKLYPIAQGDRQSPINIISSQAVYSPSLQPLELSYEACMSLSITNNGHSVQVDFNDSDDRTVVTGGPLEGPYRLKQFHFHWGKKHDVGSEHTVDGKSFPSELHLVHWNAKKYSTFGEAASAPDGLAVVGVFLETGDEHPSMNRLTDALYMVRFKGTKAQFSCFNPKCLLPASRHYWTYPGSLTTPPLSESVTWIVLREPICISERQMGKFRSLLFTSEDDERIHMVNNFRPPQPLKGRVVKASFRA
Protocol: as §1, §2, §6, §4, §5

[9] = molecular target: T8, CAIX (Homo sapiens, UniProt Q16790); test: biochemical; type: binding; conditions: FTSA, pH 7.0, 37 °C; read-out: Observed Dissociation Constant (Kd_obs), CAIX
T8 construct: made in house

[10] = molecular target: T9, CAVI (Homo sapiens, UniProt P23280); test: Fluorescent thermal shift assay (FTSA), CAVI; type: binding; conditions: FTSA, pH 7.0, 37 °C; read-out: Observed Dissociation Constant (Kd_obs), CAVI;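 further: human CAVI expressed in mammalian cells, ANS fluorescence tracked during thermal unfolding, melting temperature fitted against ligand concentration, intrinsic values corrected for deprotonated sulfonamide and Zn-bound water fractions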
T9 construct: made in house
T9 sequence (P23280 21-290 limits assumed): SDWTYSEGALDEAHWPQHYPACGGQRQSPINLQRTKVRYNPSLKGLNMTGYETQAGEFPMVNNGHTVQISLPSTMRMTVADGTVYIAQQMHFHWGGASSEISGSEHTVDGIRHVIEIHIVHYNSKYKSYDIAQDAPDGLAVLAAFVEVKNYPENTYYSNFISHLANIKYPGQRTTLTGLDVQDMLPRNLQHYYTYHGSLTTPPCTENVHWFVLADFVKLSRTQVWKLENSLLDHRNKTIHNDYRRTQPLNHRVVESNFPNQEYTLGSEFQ
Protocol: as §1, §2, §6, §4, §5

[11] = molecular target: T10, CAIII (Homo sapiens, UniProt P07451); test: Fluorescent thermal shift assay (FTSA), CAIII; type: binding; conditions: FTSA, pH 7.0, 37 °C; read-out: Observed Dissociation Constant (Kd_obs), CAIII
T10 construct: made in house; host or cells: E. coli
T10 sequence (P07451 whole entry): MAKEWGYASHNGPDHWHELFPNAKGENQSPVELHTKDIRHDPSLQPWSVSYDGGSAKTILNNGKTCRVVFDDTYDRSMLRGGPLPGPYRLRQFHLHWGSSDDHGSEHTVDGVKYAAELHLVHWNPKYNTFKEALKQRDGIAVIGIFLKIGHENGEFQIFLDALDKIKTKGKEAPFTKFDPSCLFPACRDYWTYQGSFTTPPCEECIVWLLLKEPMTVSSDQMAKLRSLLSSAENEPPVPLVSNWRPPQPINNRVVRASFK
Protocol: as §1, §2, §6, §4, §5

[12] = molecular target: T11, CAVB (Homo sapiens, UniProt Q9Y2D0); test: Fluorescent thermal shift assay (FTSA), CAVB; type: binding; conditions: FTSA, pH 7.0, 37 °C; read-out: Observed Dissociation Constant (Kd_obs), CAVB
T11 construct: made in house; host or cells: E. coli
T11 sequence (Q9Y2D0 34-317): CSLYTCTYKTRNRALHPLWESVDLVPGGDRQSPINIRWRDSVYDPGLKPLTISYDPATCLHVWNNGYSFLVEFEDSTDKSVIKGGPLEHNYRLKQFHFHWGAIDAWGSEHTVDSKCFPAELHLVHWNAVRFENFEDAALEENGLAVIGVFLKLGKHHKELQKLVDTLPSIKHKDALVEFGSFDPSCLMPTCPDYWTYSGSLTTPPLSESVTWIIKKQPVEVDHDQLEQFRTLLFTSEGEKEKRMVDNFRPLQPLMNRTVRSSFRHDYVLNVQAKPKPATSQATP
Protocol: as §1, §2, §6, §4, §5

[13] = read-out: Observed Dissociation Constant (Kd_obs), CAVII
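Wherever Observed Dissociation Constant (Kd obs), CAXII is given: recombinant CAXII made in E. coli, ANS-fluorescence thermal shift with affinity fitted from Tm versus ligand concentration, intrinsic energy from Kd_obs corrected for deprotonated sulfonamide and Zn-water fractions.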

Row | melting point [°C] | Kd [1] [nM] | Kd [2] [nM] | Kd [3] [nM] | Kd [4] [nM] | Kd [5] [nM] | Kd [6] [nM] | Kd [7] [nM] | Kd [8, 13] [nM] | Kd [9] [nM] | Kd [10] [nM] | Kd [11] [nM] | Kd [12] [nM] | Kd ([8]; Observed Dissociation Constant (Kd_obs), CAVII) [nM] | Structure (SMILES)
1 | 212 to 213 | 180 | 20000 | 140 | 7900 | 4200 | 1400 | 240 | 290 | 100 | 670 | ≥ 200000 | 130 |  | NS(=O)(=O)c1ccc(NCC(CC(=O)NN=Cc2ccccc2)C(=O)NN=Cc2ccccc2)c(Cl)c1 (stereo not shown) [Compound 6b, 4-((2-(2-(Benzylidene)hydrazine-1-carbonyl)-4-(2-(benzylidene)hydrazineyl)-4-oxobutyl)amino)-3-chlorobenzenesulfonamide]
2 | 226 to 227 | 250 | 2900 | 130 | 14000 | 1000 | 670 | 200 |  | 100 | 670 | ≥ 200000 | 830 | 250 | NS(=O)(=O)c1ccc(NCC(CC(=O)NN=Cc2ccc(O)cc2)C(=O)NN=Cc2ccc(O)cc2)c(Cl)c1 (stereo not shown) [Compound 9b, 3-Chloro-4-((2-(2-(4-hydroxybenzylidene)hydrazine-1-carbonyl)-4-(2-(4-hydroxybenzylidene)hydrazineyl)-4-oxobutyl)amino)benzenesulfonamide]
3 | 232 to 233 | 130 | 20000 | 25 | 1300 | 1800 | 290 | 50 | 200 | 56 | 5000 | ≥ 200000 | 1400 |  | Cc1ccc(C)n1NC(=O)CC(CNc1ccc(S(N)(=O)=O)cc1Cl)C(=O)Nn1c(C)ccc1C (stereo not shown) [Compound 19b, 2-(((2-Chloro-4-sulfamoylphenyl)amino)methyl)-N^1,N^4-bis(2,5-dimethyl-1H-pyrrol-1-yl)succinamide]
4 | 201 to 202 | 2900 | 22000 | 330 | 13000 | 2000 | 5000 | 500 | 10000 | 100 | 20000 | ≥ 200000 | 3300 |  | Cc1cc(C)n(C(=O)CC(CNc2ccc(S(N)(=O)=O)cc2Cl)C(=O)n2nc(C)cc2C)n1 (stereo not shown) [Compound 20, 3-Chloro-4-((4-(3,5-dimethyl-1H-pyrazol-1-yl)-2-(3,5-dimethyl-1H-pyrazole-1-carbonyl)-4-oxobutyl)amino)benzenesulfonamide]
5 | 212 to 213 | 1700 | 6700 | 130 | 2200 | 2000 | 3300 | 400 | 670 | 100 | 3300 | ≥ 200000 | ≥ 200000 |  | CNC(=S)NNC(=O)CC(CNc1ccc(S(N)(=O)=O)cc1Cl)C(=O)NNC(=S)NC (stereo not shown) [Compound 22b]
6 | 158 to 159 | 400 | 20000 | 50 | 50 | 1000 | 67 | 50 | 110 | 33 | 1000 | 15000 | 1100 |  | NS(=O)(=O)c1ccc(NCC(CC(=O)NNC(=S)Nc2ccccc2)C(=O)NNC(=S)Nc2ccccc2)c(Cl)c1 (stereo not shown) [Compound 23b, 2,2′-(2-(((2-Chloro-4-sulfamoylphenyl)amino)methyl)succinyl)bis(N-phenylhydrazine-1-carbothioamide)]

Continued, molecule first:

Row | Structure (SMILES) | melting point [°C] | Kd [1] [nM] | Kd [2] [nM] | Kd [3] [nM] | Kd [4] [nM] | Kd [5] [nM] | Kd [6] [nM] | Kd [7] [nM] | Kd [8, 13] [nM] | Kd [9] [nM] | Kd [10] [nM] | Kd [11] [nM] | Kd [12] [nM] | Kd ([8]; Observed Dissociation Constant (Kd_obs), CAVII) [nM]
7 | NS(=O)(=O)c1ccc(NCC(CC(=O)NN=Cc2ccc(C(=O)O)cc2)C(=O)NN=Cc2ccc(C(=O)O)cc2)cc1 (stereo not shown) [Compound 18a, 4,4′-(((2-(((4-Sulfamoylphenyl)amino)methyl)succinyl)bis(hydrazin-2-yl-1-ylidene))bis(methaneylylidene))dibenzoic acid] | 308 to 309 | 25000 | 20000 | 5000 | 20000 | 33000 | 20000 | 5000 | 6700 | 1400 | 33000 | ≥ 200000 | 14000 | 
8 | NS(=O)(=O)c1ccc(NCC(CC(=O)NN=Cc2ccc(C(=O)O)cc2)C(=O)NN=Cc2ccc(C(=O)O)cc2)c(Cl)c1 (stereo not shown) [Compound 18b, 4,4′-(((2-(((2-Chloro-4-sulfamoylphenyl)amino)methyl)succinyl)bis(hydrazin-2-yl-1-ylidene))bis(methaneylylidene))dibenzoic acid] | 294 to 295 | 1800 | 6700 | 1000 | 13000 | 13000 | 5000 | 1300 | 330 | 250 | 20000 | ≥ 200000 | 6700 | 
9 | CNC(=S)NNC(=O)CC(CNc1ccc(S(N)(=O)=O)cc1)C(=O)NNC(=S)NC (stereo not shown) [Compound 22a, 2,2′-(2-(((4-Sulfamoylphenyl)amino)methyl)succinyl)bis(N-methylhydrazine-1-carbothioamide)] | 192 to 193 | 33000 | 33000 | 3300 | 11000 | 6700 | 50000 | 2500 | 10000 | 330 | 13000 | ≥ 200000 | 25000 | 
10 | NS(=O)(=O)c1ccc(NCC(Cc2n[nH]c(=S)n2-c2ccccc2)c2n[nH]c(=S)n2-c2ccccc2)cc1 (stereo not shown) [Compound 25a, 4-((2,3-bis(4-Phenyl-5-thioxo-4,5-dihydro-1H-1,2,4-triazol-3-yl)propyl)amino)benzenesulfonamide] | 258 to 259 | 25000 |  |  | 4000 |  | 100000 | 3300 |  | 100 |  |  |  | 
11 | NS(=O)(=O)c1ccc(NCC(Cc2n[nH]c(=S)n2-c2ccccc2)c2n[nH]c(=S)n2-c2ccccc2)c(Cl)c1 (stereo not shown) [Compound 25b, 4-((2,3-bis(4-Phenyl-5-thioxo-4,5-dihydro-1H-1,2,4-triazol-3-yl)propyl)amino)-3-chlorobenzenesulfonamide] | 175 to 176 | 400 | 38000 | 25 | 630 | 1400 | 170 | 25 | 170 | 25 | 200 | 5000 | 1400 | 
